What is called IC50 is the concentration that inhibits the measured activity by half.

Read-outs that look alike come from different tables or passages of the source.

The results in this text go back to patent publication US8889712B2, “IAP antagonists” (Bristol-Myers Squibb Company, priority 2012, dated 2014).

Assay [1] has as its target T1, XIAP BIR3 (Homo sapiens, UniProt P98170).
T1 construct: His-BIR3 (241-356, XIAP)
Description: XIAP-BIR3/SMAC Homogeneous Time Resolved Fluorescence (HTRF) Assay. Format: binding. As for the experimental part:
A. XIAP-BIR3/SMAC Homogeneous Time Resolved Fluorescence (HTRF) Assay Assays were performed in black, flat-bottom, 384-well plates. […] The reaction was incubated at room temperature for 60 minutes, following which 10 μl of mouse anti-6×His-terbium labeled Fab (Medarex, Cis-bio) was added to the reaction (40 μl) for an additional 30 minute incubation. […] Compounds were dissolved at 3 mM in dimethylsulfoxide (DMSO) and evaluated at eleven serially diluted concentrations. IC50 and Ki values were derived by non-linear regression analysis.
(In TR-FRET formats the signal depends on donor and acceptor labels being close together.)

Assay [2] concerns the target T2, XIAP BIR2-3 (Homo sapiens, UniProt P98170, C202A/C213G).
T2 construct: His-BIR2-3 (125-356, C202A/C213G, XIAP)
Kind of assay: XIAP-BIR2-3 dimeric SMAC Peptide Homogeneous Time Resolved Fluorescence (HTRF) Assay. Format: binding. On the procedure:
B. […] Assays were performed in black, flat-bottom, 384-well plates. […] Compounds were dissolved at 3 mM in dimethylsulfoxide (DMSO) and evaluated at eleven serially diluted concentrations. IC50 and Ki values were derived by non-linear regression analysis.

Where [3] appears, read: 1 nM N-His-BIR3 (241-356, XIAP), 5 nM fluorescein labeled SMAC peptide, HTRF signal, read-out: XIAP BIR3 IC50.
Where [4] appears, read: 0.5 nM N-His-BIR2-3 (125-356, C202A/C213G, XIAP), 20 nM fluorescein labeled dimeric SMAC peptide, HTRF signal, read-out: XIAP BIR2-3 IC50.

T1 sequence (P98170 241-356): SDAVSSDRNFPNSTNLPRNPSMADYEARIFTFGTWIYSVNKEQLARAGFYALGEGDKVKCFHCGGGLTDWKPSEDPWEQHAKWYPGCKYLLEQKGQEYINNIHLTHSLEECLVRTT
T2 sequence (P98170 125-356 C202A/C213G): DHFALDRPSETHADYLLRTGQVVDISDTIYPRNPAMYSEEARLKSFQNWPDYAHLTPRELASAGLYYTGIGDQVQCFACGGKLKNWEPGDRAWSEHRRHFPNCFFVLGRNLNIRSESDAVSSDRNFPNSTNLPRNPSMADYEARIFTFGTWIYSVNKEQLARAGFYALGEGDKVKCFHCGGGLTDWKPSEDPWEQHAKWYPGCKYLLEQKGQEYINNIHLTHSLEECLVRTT

Take `CN[C@@H](C)C(=O)N[C@H](C(=O)N1Cc2cc([C@H]3C[C@@H](C(=O)N[C@@H]4CCCc5ccccc54)N(C(=O)[C@@H](NC(=O)[C@H](C)NC)C(C)(C)C)C3)ccc2C[C@H]1C(=O)N[C@H](CO)Cc1ccccc1)C(C)(C)C` [Example 34, (S)-2-((S)-3,3-Dimethyl-2-((S)-2-(methylamino)propanamido)butanoyl)-7-((3R,5S)-1-((S)-3,3-dimethyl-2-((S)-2-(methylamino)propanamido)butanoyl)-5-(((R)-1,2,3,4-tetrahydronaphthalen-1-yl)carbamoyl)pyrrolidin-3-yl)-N-((S)-1-hydroxy-3-phenylpropan-2-yl)-1,2,3,4-tetrahydroisoquinoline-3-carboxamide]: the concentration for half-maximal inhibition (IC50) in assay [1] (setting [3]) is 4.8 nM; in assay [2] (setting [4]), 7 nM.

`CN[C@@H](C)C(=O)N[C@H](C(=O)N1CC(c2ccc3c(c2)CN(C(=O)[C@@H](NC(=O)[C@H](C)NC)C(C)(C)C)[C@H](C(=O)NC2CCCc4ccccc42)C3)C[C@H]1C(=O)NC(Cc1ccccc1)C(=O)Nc1ccc(F)cc1)C(C)(C)C` (stereo in doubt) [Example 71, (S)-2-((S)-3,3-Dimethyl-2-((S)-2-(methylamino)propanamido)butanoyl)-7-((3S,5S)-1-((S)-3,3-dimethyl-2-((S)-2-(methylamino)propanamido)butanoyl)-5-(((S)-1-((4-fluorophenyl)amino)-1-oxo-3-phenylpropan-2-yl)carbamoyl)pyrrolidin-3-yl)-N-((R)-1,2,3,4-tetrahydronaphthalen-1-yl)-1,2,3,4-tetrahydroisoquinoline-3-carboxamide]: the figures for the IC50 in assay [1] (setting [3]) and in assay [2] (setting [4]) were 5.6 nM and 1.5 nM, respectively.

For the compound `CCN(CC)C(=O)[C@H](Cc1ccccc1)NC(=O)[C@@H]1C[C@H](c2ccc3c(c2)CN(C(=O)[C@@H](NC(=O)[C@H](C)NC)C(C)(C)C)[C@H](C(=O)N[C@@H]2CCCc4ccccc42)C3)CN1C(=O)[C@@H](NC(=O)[C@H](C)NC)C(C)(C)C` [Example 62, (S)-7-((3R,5S)-5-(((S)-1-(Diethylamino)-1-oxo-3-phenylpropan-2-yl)carbamoyl)-1-((S)-3,3-dimethyl-2-((S)-2-(methylamino)propanamido)butanoyl)pyrrolidin-3-yl)-2-((S)-3,3-dimethyl-2-((S)-2-(methylamino)propanamido)butanoyl)-N-((R)-1,2,3,4-tetrahydronaphthalen-1-yl)-1,2,3,4-tetrahydroisoquinoline-3-carboxamide], the IC50 is 9.2 nM in assay [1] and 1.9 nM in assay [2].

In the case of `CN[C@@H](C)C(=O)N[C@H](C(=O)N1C[C@@H](c2ccc3c(c2)CN(C(=O)[C@@H](NC(=O)[C@H](C)NC)C(C)(C)SCC(=O)NC(CO)CO)[C@H](C(=O)N[C@@H]2CCCc4ccccc42)C3)C[C@H]1C(=O)N[C@@H]1CCCc2ccccc21)C(C)(C)C` [Example 31, (S)-2-((R)-3-((2-((1,3-Dihydroxypropan-2-yl)amino)-2-oxoethyl)thio)-3-methyl-2-((S)-2-(methylamino)propanamido)butanoyl)-7-((3R,5S)-1-((S)-3,3-dimethyl-2-((S)-2-(methylamino)propanamido)butanoyl)-5-(((R)-1,2,3,4-tetrahydronaphthalen-1-yl)carbamoyl)pyrrolidin-3-yl)-N-((R)-1,2,3,4-tetrahydronaphthalen-1-yl)-1,2,3,4-tetrahydroisoquinoline-3-carboxamide], the IC50 in assay [1] (setting [3]) came to 13.8 nM; in assay [2] (setting [4]) it was 1.2 nM.

Take `CN[C@@H](C)C(=O)N[C@H](C(=O)N1Cc2cc([C@H]3C[C@@H](C(=O)N[C@@H]4CCCc5ccccc54)N(C(=O)[C@@H](NC(=O)[C@H](C)NC)C(C)(C)C)C3)ccc2C[C@H]1C(=O)N[C@@H](Cc1ccccc1)C(=O)OC)C(C)(C)C` [Example 40, (S)-Methyl 2-((S)-2-((S)-3,3-dimethyl-2-((S)-2-(methylamino)propanamido)butanoyl)-7-((3R,5S)-1-((S)-3,3-dimethyl-2-((S)-2-(methylamino)propanamido)butanoyl)-5-(((R)-1,2,3,4-tetrahydronaphthalen-1-yl)carbamoyl)pyrrolidin-3-yl)-1,2,3,4-tetrahydroisoquinoline-3-carboxamido)-3-phenylpropanoate]: the IC50 in assay [1] (setting [3]) came to 1.5 nM; in assay [2] (setting [4]), 0.9 nM.

Turning to `CN[C@@H](C)C(=O)N[C@H](C(=O)N1C[C@@H](c2ccc3c(c2)CN(C(=O)[C@@H](NC(=O)[C@H](C)NC)C(C)(C)C)[C@H](C(=O)N[C@@H]2CCCc4ccccc42)C3)C[C@H]1C(=O)N[C@@H](Cc1ccccc1)C(=O)NS(=O)(=O)c1ccccc1)C(C)(C)C` [Example 48, (S)-2-((S)-3,3-Dimethyl-2-((S)-2-(methylamino)propanamido)butanoyl)-7-((3R,5S)-1-((S)-3,3-dimethyl-2-((S)-2-(methylamino)propanamido)butanoyl)-5-(((S)-1-oxo-3-phenyl-1-(phenylsulfonamido)propan-2-yl)carbamoyl)pyrrolidin-3-yl)-N-((R)-1,2,3,4-tetrahydronaphthalen-1-yl)-1,2,3,4-tetrahydroisoquinoline-3-carboxamide], the IC50 was found to be 0.8 nM in assay [1] and 0.7 nM in assay [2].

Regarding `CN[C@@H](C)C(=O)N[C@H](C(=O)N1C[C@@H](NC(=O)c2ccc3c(c2)CN(C(=O)[C@@H](NC(=O)[C@H](C)NC)C24CC5CC(CC(O)(C5)C2)C4)[C@H](C(=O)NC2CCCc4ccccc42)C3)C[C@H]1C(=O)NC1CCCc2ccccc21)C(C)(C)C` (stereo partly drawn) [Example 88, (S)-N^7-((3S,5S)-1-((S)-3,3-dimethyl-2-((S)-2-(methylamino)propanamido)butanoyl)-5-(((R)-1,2,3,4-tetrahydronaphthalen-1-yl)carbamoyl)pyrrolidin-3-yl)-2-((S)-2-((1r,3R,5R,7S)-3-hydroxyadamantan-1-yl)-2-((S)-2-(methylamino)propanamido)acetyl)-N^3-((R)-1,2,3,4-tetrahydronaphthalen-1-yl)-1,2,3,4-tetrahydroisoquinoline-3,7-dicarboxamide], the IC50 is 9 nM in assay [1] (setting [3]) and 2.6 nM in assay [2] (setting [4]).

Regarding `CCNC(=O)[C@H](Cc1ccccc1)NC(=O)[C@@H]1C[C@H](c2ccc3c(c2)CN(C(=O)[C@@H](NC(=O)[C@H](C)NC)C(C)(C)C)[C@H](C(=O)N[C@@H]2CCCc4ccccc42)C3)CN1C(=O)[C@@H](NC(=O)[C@H](C)NC)C(C)(C)C` [Example 51, (S)-2-((S)-3,3-Dimethyl-2-((S)-2-(methylamino)propanamido)butanoyl)-7-((3R,5S)-1-((S)-3,3-dimethyl-2-((S)-2-(methylamino)propanamido)butanoyl)-5-(((S)-1-(ethylamino)-1-oxo-3-phenylpropan-2-yl)carbamoyl)pyrrolidin-3-yl)-N-((R)-1,2,3,4-tetrahydronaphthalen-1-yl)-1,2,3,4-tetrahydroisoquinoline-3-carboxamide], the 50% inhibitory concentration (IC50) in assay [1] (setting [3]) turned out to be 19.4 nM; in assay [2] (setting [4]), 9.6 nM.
